Measurements: article PMC4038168 (Chemical communications (Cambridge, England), 2014)
“Also recorded” adds a separate entry of the source.

Legend:
rat FAAH (r-FAAH) = biological target: T1, rat FAAH (r-FAAH) (Rattus norvegicus, UniProt P97612); test: rat FAAH inhibition; type: biochemical
T1 sequence (P97612 1-579): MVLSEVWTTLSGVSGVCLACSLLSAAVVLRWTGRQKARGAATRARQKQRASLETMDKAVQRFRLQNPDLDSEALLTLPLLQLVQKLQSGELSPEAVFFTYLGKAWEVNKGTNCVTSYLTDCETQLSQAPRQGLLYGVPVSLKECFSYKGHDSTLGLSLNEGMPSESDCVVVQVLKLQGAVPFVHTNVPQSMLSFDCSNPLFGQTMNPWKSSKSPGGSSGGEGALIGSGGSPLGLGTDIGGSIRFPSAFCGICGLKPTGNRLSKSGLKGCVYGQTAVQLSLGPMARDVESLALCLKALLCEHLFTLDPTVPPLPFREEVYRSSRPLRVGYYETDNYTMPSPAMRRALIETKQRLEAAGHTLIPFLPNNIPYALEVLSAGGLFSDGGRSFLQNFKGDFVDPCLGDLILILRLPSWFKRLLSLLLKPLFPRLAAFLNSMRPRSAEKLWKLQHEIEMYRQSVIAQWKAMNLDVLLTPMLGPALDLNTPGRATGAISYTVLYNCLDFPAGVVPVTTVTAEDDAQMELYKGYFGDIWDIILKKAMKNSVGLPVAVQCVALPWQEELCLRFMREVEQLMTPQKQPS

cannabinoid receptor CB1 [1] = biological target: T2, cannabinoid receptor CB1 (Homo sapiens, UniProt P21554); test: CB1 functional assay; type: cell-based
human FAAH (h-FAAH) = biological target: T3, human FAAH (h-FAAH) (Homo sapiens, UniProt O00519); test: human FAAH inhibition; type: biochemical
T3 sequence (O00519 1-579): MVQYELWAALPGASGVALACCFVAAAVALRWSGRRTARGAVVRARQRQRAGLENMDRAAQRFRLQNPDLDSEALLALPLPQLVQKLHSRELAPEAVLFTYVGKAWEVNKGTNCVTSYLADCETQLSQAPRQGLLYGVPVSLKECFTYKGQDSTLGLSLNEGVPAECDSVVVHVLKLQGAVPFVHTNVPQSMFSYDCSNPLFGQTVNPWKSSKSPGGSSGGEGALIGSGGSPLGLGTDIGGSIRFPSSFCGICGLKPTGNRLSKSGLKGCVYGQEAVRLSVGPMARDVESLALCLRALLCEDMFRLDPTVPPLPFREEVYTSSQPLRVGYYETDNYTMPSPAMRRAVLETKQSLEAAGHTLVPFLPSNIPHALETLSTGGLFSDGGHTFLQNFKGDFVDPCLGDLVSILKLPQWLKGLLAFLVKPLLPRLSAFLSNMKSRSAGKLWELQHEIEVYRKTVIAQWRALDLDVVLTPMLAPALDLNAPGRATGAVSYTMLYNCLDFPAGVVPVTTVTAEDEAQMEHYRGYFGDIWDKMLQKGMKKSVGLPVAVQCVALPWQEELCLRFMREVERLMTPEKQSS

human DRD3 = human DRD3 (Homo sapiens, UniProt P35462); test: human DRD3 functional assay; type: cell-based
cannabinoid receptor CB1 [2] = biological target: T2, cannabinoid receptor CB1; conditions: cited from earlier work

T2 sequence (P21554 whole entry): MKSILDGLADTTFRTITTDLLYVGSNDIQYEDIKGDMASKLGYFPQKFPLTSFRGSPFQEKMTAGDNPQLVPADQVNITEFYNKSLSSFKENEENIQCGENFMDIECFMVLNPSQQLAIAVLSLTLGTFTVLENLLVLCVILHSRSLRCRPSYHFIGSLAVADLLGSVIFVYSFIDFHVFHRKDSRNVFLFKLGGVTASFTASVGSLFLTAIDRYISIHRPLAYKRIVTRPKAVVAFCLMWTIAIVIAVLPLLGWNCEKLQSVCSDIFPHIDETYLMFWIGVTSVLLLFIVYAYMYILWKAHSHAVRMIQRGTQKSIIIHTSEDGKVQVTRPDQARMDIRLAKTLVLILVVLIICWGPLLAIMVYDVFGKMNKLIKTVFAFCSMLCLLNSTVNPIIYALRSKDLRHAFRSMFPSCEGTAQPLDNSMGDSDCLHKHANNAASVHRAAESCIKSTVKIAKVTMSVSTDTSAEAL
Chain of human DRD3 (P35462 whole entry): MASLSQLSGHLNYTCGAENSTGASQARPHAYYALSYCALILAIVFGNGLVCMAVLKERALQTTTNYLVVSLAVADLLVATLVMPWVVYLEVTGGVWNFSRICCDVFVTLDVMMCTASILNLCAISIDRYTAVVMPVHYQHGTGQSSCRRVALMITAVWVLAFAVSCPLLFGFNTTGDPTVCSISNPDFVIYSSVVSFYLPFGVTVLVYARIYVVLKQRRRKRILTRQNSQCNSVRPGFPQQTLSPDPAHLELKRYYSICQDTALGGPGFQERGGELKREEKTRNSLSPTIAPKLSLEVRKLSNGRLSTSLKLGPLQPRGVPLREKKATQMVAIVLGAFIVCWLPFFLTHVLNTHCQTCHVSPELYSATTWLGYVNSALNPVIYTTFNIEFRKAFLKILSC

O=C(NCCCCN1CCN(c2cccc(Cl)c2Cl)CC1)c1ccc(-c2ccccn2)cc1 [Compound 2, CJB090]
inhibitory activity on r-FAAH (in words) (rat FAAH (r-FAAH)): did not show any significant inhibitory activity | CB1 activity (in words) (cannabinoid receptor CB1 [1]): rather potent CB1 agonist | EC50 (cannabinoid receptor CB1 [1]; read-out: CB1 EC50): 0.84 µM | inhibitory activity on h-FAAH (in words) (human FAAH (h-FAAH)): did not show any significant inhibitory activity

NC(=O)c1cccc(-c2cccc(OC(=O)NC3CCCCC3)c2)c1 [Compound 5, URB597]
activity on DRD3 (in words) (human DRD3): no activity | effect on CB1 (in words) (cannabinoid receptor CB1 [2]): no effect

COc1ccccc1N1CCN(CCCCNC(=O)c2ccc3ccccc3c2)CC1 [Compound 3, BP-897]
inhibitory activity on r-FAAH (in words) (rat FAAH (r-FAAH)): did not show any significant inhibitory activity | CB1 activity (in words) (cannabinoid receptor CB1 [1]): completely devoid of CB1 activity; also recorded: did not show any activity | inhibitory activity on h-FAAH (in words) (human FAAH (h-FAAH)): did not show any significant inhibitory activity
